Laboratory results published in patent publication US10383950B2, “Methods and compositions of carrier systems for the purpose of intracellular drug targeting” (HELMHOLTZ-ZENTRUM FÜR INFEKTIONSFORSCHUNG GMBH, priority 2014, dated 2019).

Legend:
[1] = cited from earlier work
[2] = In vitro release of gentamicin (dialysis membrane setup); conditions: 37° C., PBS pH 7.4, 10.000 MWCO cellulose membrane

## gentamicin
[1]
  pKa: 8.2
[2]
  time at which gentamicin became detectable in the bulk release medium: ≤ 1 min
  time to complete release / permeation of gentamicin: 1.5 h
